According to publication PMC3674995, “Safety, Pharmacokinetic, and Efficacy Studies of Oral DB868 in a First Stage Vervet Monkey Model of Human African Trypanosomiasis” (PLoS Neglected Tropical Diseases, 2013):
“And” between values parts separate entries of the source, which are not always exact repeats. Identical values can stand only once. “Also recorded” adds a separate entry of the source.

Assays:
[1] = system: T. b. rhodesiense KETRI 2537; assay: Efficacy in first stage HAT vervet monkey model; assay type: in vivo; conditions: for time to clear parasites from the blood: after the 1st drug dose
Description: Monkeys that were deemed as treatment failures/relapses or developed severe adverse clinical signs as defined in the protocol (e.g., inability or reluctance to perch, less than ¼ of normal daily feed intake for 2–3 consecutive days) were immediately withdrawn from the study and humanely euthanized for post-mortem examination. These monkeys were euthanized by intravenous administration of 20% (w/v) pentobarbitone sodium solution (150 mg/kg body weight; Euthatal; Rhône-Mérieux, United Kingdom).

[2] = system: T. b. brucei s427 trypanosomes; design: method as in PMID 21402852; conditions: 3.2 µM; cited from earlier work
[3] = Metabolism of DB868 in vervet monkey liver microsomes; assay type: in vitro ADME; conditions: 10 µM, 0.5 mg/mL microsomes, 1 mM NADPH, pH 7.4, up to 120 min
Description: DB868 metabolism was studied in male vervet monkey liver microsomes (custom-prepared by XenoTech, LLC, Lenexa, KS, USA) by adapting a previously published method. Briefly, incubation mixtures contained 10 µM DB868, 0.5 mg/mL monkey liver microsomes, and 3.3 mM MgCl2 in 100 mM phosphate buffer (pH 7.4). Reactions were initiated by the addition of NADPH (1 mM final concentration). Control incubations were carried out without NADPH, DB868, or liver microsomes. Aliquots (100 µL) of the reaction mixtures were removed at 0, 5, 10, 15, 30, 60 and 120 min and mixed with 100 µL of ice-cold acetonitrile. After centrifugation to pellet precipitated proteins, the supernatants were analyzed by HPLC/UV and fluorescence using the method previously described for pafuramidine (DB289) and furamidine (DB75). Metabolite identification was performed by comparing retention times to those of synthetic standards for M1 (DB1679), M2 (DB840), M3 (DB1712), and DB829. DB868 and its metabolites were quantified using a calibration curve (0.1–10 µM) generated using synthetic standards.

[4] = Pharmacokinetics in infected vervet monkeys (first stage HAT); assay type: in vivo, vervet monkey; conditions: monkey, plasma, po, prodrug in plasma post-LDD, all oral DB868 regimens; infected; 0.04 days = 1 h; read-out: Tmax (majority, 4/6 monkeys) (converted)
[5] = system: T. b. rhodesiense STIB900; design: method as in PMID 19620327; conditions: oral administration; cited from earlier work
T. b. brucei GVR35 = system: T. b. brucei GVR35; design: method as in PMID 19620327; conditions: oral administration; cited from earlier work
[6] = design: method as in earlier work; conditions: cited from earlier work
[7] = Pharmacokinetics in uninfected vervet monkeys; conditions: uninfected; for concentration at 24 h / concentration at 4 h: both, monkey, po; for concentration at 24 h / concentration at 4 h / C24 h: plasma; for concentration at 24 h: C24 h; for concentration at 4 h: geometric mean C4 h, n = 4
[8] = Safety (overt toxicity, haematology, clinical chemistry) in uninfected vervet monkeys; conditions: for peak plasma urea relative to baseline: p<0.05; for highest post-treatment mean ALT: plasma
[9] = oral 3 mg/kg×7 days, monkeys 638, 643
[10] = after final oral dose of DB868 30 mg/kg×10 days, individual monkeys, 30 mg/kg
[11] = oral 10 mg/kg/day×10 days, 1–2 days post-LDD

N=C(N)c1ccc(OCCCCCOc2ccc(C(=N)N)cc2)cc1 [Pentamidine, reference compound]
Trypanosomes blood/CSF at EoT ([1]; intramuscular 4 mg/kg×7 days from 7 DPI, monkeys 651, 541, 672): Pos and Neg
Final efficacy assesment ([1]; intramuscular 4 mg/kg×7 days, monkeys 651, 541, 672): Not cured; also recorded: Cured
time to clearance of trypanosomes from peripheral blood ([1]; monkey, in vivo, im, 4 mg/kg): 2 days

N=C(N)c1ccc(-c2ccc(-c3ccc(C(=N)N)cc3)o2)cc1 [furamidine, 2,5-bis(4-amidinophenyl)furan, reference compound]
exposure required to kill trypanosomes in culture [2]: 1 h

CONC(=N)c1ccc(-c2ccc(-c3ccc(C(=N)NOC)cn3)o2)nc1 [DB868, 2,5-bis[5-(N-methoxyamidino)-2-pyridyl]furan]
metabolites formed [3]: metabolized in male vervet monkey liver microsomes to M1 (DB1679), M2 (DB840), M3 (DB1712), M4, and the active compound DB829
day of dosing on which parasitologically negative ([1]; oral 3 mg/kg/day for 7 days, monkey 638): 6 day
time at which parasitologically negative ([1]; oral 3 mg/kg/day for 7 days, monkey 643): 3 days post-LDD
Trypanosomes blood/CSF at EoT ([1]; oral 3 mg/kg×7 days from 7 DPI, monkeys 638, 643): Neg
Final efficacy assesment [1, 9]: Cured
Provisional efficacy at 100 days post-treatment [1, 9]: Cured
time at which consistently parasitologically negative ([1]; oral 10 mg/kg/day for 7 days, monkey 675): 7 days post-LDD
day of treatment on which parasitologically negative ([1]; oral 10 mg/kg/day for 7 days, monkey 691): 6 day
Trypanosomes blood/CSF at EoT ([1]; oral 10 mg/kg×7 days from 7 DPI, monkeys 675, 691): Neg
Provisional efficacy at 100 days post-treatment ([1]; oral 10 mg/kg×7 days, monkeys 675, 691): Cured
day of drug administration by which trypanosomes were undetectable in blood ([1]; oral 20 mg/kg/day for 5 days, all three monkeys): ≤ 4 days
Trypanosomes blood/CSF at EoT ([1]; oral 20 mg/kg×5 days from 7 DPI, monkeys 585, 658, 686, Neg = negative, Pos = positive): Neg
time to clear parasites from the blood ([1]; oral, '30 mg/kg group'): 2 to 5 days
time to clearance of trypanosomes from peripheral blood ([1]; oral, after the 1st dose, depending on the dose): 2 to 14 days
cure of infected monkeys ([1]; oral, all three regimens (3 mg/kg/day×7, 10 mg/kg/day×7, 20 mg/kg/day×5 days), treatment from 7 DPI): All infected monkeys were cured
dose required to achieve complete cure ([1]; oral, for 7 days, first stage HAT monkey model): 3 mg/kg
time to clear parasites from the blood ([1]; oral, lower dose regimen groups (3 and 10 mg/kg)): 6 to 14 days
curative cumulative dose, fold lower than the maximum tolerated dose ([1]; oral, 21 mg/kg vs 300 mg/kg cumulative): 14 fold
Tmax [4]: 57.6 min
curative [5]: 100%
curative (T. b. brucei GVR35): 100%
increase in ALT compared to untreated rats ([6]; female Sprague-Dawley rats, oral 25 mg/kg/day for 3 weeks): less than 2 fold
effect on KIM-1 ([6]; oral 12 mg/kg/day×28 days, entire 4-month observation period): no effect
AUC0-∞ [7, 10]: 200 nmol·days/L and 540 nmol·days/L and 260 nmol·days/L and 180 nmol·days/L
AUClast [7, 10]: 190 nmol·days/L and 530 nmol·days/L and 210 nmol·days/L and 170 nmol·days/L
t1/2 (terminal elimination half-life) [7, 10]: 0.4 day and 1 day (2×) and 1.3 day
concentration at 24 h ([7]; 10 mg/kg, 24 h after final oral dose of DB868 10 mg/kg×10 days, individual monkeys, BLQ = below limit of quantitation): 6 nM
concentration at 4 h ([7]; 10 mg/kg/day, oral DB868 10 mg/kg/day×10 days): 89 nM
concentration at 24 h ([7]; 30 mg/kg, 24 h after final oral dose of DB868 30 mg/kg×10 days, individual monkeys): 66 nM
concentration at 4 h ([7]; 30 mg/kg/day, oral DB868 30 mg/kg/day×10 days): 466 nM
time for plasma concentration to decline below the limit of detection ([7]; oral DB868 10 mg/kg/day×10 days): less than 1 day post-LDD
time for plasma concentration to decline below the limit of detection ([7]; oral DB868 30 mg/kg/day×10 days): 1–2 days post-LDD
geometric mean C4 h, 30 mg/kg group relative to 10 mg/kg group ([7]; oral DB868×10 days): 5.2 fold
C4 h ([7]; plasma concentration at 4 h after final (10th) oral dose of DB868 10 mg/kg×10 days, individual monkeys 643, 659, 675, 677, 10 mg/kg): 50 nM and 130 nM and 39 nM and 250 nM
C4 h ([7]; plasma concentration at 4 h after final (10th) oral dose of DB868 30 mg/kg×10 days, individual monkeys 546, 567, 668, 679, 30 mg/kg): 330 nM and 1600 nM and 280 nM and 320 nM
C24 h ([7]; 24 h after final oral dose of DB868 10 mg/kg×10 days, individual monkeys, BLQ = below limit of quantitation, 10 mg/kg): BLQ
C24 h ([7]; 24 h after final oral dose of DB868 30 mg/kg×10 days, individual monkeys, 30 mg/kg): 38 nM and 47 nM and 35 nM
transient increase of plasma urea concentrations ([8]; both dose groups, 1–2 days after the last drug dose): 2–3 fold
adverse clinical signs ([8]; oral 10 mg/kg/day for 10 days, uninfected, n = 4): did not exhibit any adverse clinical signs
BUN equivalent of peak mean urea [8, 11]: 35.9 mg/dL
mean creatinine concentration [8, 11]: 72.3 µmol/L
mean creatinine concentration (equivalent) [8, 11]: 0.8 mg/dL
peak mean urea concentration [8, 11]: 12.8 mmol/L
peak plasma urea relative to baseline [8, 11]: 2.1 fold
maximum decline of mean body weight from baseline ([8]; oral 10 mg/kg/day×10 days, baseline 3.2 kg±0.5): 6.2%
highest post-treatment mean ALT relative to second baseline sample ([8]; oral 10 mg/kg/day×10 days, p = 0.71): 2.8 fold
highest post-treatment mean ALT ([8]; oral 10 mg/kg/day×10 days): 31.3 IU/L
overt toxicity ([8]; oral 30 mg/kg/day for 10 days (cumulative 300 mg/kg), uninfected, two of four monkeys: excess mucous in stool, transient inappetance): mild signs of toxicity; also recorded: No significant overt toxicity
peak plasma urea relative to baseline ([8]; oral 30 mg/kg/day×10 days, 1–2 days post-LDD): 2.7 fold
maximum decline of mean body weight from baseline ([8]; oral 30 mg/kg/day×10 days, baseline 3.1 kg±0.3): 6.5%
mean white blood cell count, transient increase over baseline post-LDD ([8]; oral 30 mg/kg/day×10 days, p = 0.05, returned to baseline after 24 h, judged not drug-related): 1.5 fold
highest post-treatment mean ALT relative to second baseline sample ([8]; oral 30 mg/kg/day×10 days, p = 0.37): 1.3 fold
highest post-treatment mean ALT ([8]; oral 30 mg/kg/day×10 days): 20.5 IU/L
post-dosing variations of mean plasma creatinine ([8]; oral 10 or 30 mg/kg/day×10 days, not statistically significant (p>0.05)): minimal
mean AST and total and direct bilirubin levels versus baseline ([8]; oral 10 or 30 mg/kg/day×10 days, p>0.05): not statistically different from baseline values
gastrointestinal toxicity (stool, faecal occult blood tests) ([8]; oral 10 or 30 mg/kg/day×10 days, uninfected): no notable gastrointestinal toxicity occurred
overall tolerability ([8]; two oral regimens, 10 and 30 mg/kg/day for 10 days, uninfected): well tolerated
haematological parameters versus baseline ([8]; two treatment groups, 10 and 30 mg/kg/day×10 days, uninfected): did not vary significantly from baseline
